Data: patent publication US20220125959A1, “PROSTATE-SPECIFIC MEMBRANE ANTIGEN (PSMA) INHIBITORS AS DIAGNOSTIC AND RADIONUCLIDE THERAPEUTIC AGENTS” (FIVE ELEVEN PHARMA INC., priority 2019, published 2022)

Columns and labels:
PSMA [1] = biological target: T1, PSMA (Homo sapiens, UniProt Q04609); set-up: expressed in transfected cells; host or cells: PC-3 PIP cells; conditions: ^131I labeled MIP-1095; read-out: PSMA binding affinity Ki; cited from earlier work
Target sequence in this assay (Q04609 whole entry, species assumed): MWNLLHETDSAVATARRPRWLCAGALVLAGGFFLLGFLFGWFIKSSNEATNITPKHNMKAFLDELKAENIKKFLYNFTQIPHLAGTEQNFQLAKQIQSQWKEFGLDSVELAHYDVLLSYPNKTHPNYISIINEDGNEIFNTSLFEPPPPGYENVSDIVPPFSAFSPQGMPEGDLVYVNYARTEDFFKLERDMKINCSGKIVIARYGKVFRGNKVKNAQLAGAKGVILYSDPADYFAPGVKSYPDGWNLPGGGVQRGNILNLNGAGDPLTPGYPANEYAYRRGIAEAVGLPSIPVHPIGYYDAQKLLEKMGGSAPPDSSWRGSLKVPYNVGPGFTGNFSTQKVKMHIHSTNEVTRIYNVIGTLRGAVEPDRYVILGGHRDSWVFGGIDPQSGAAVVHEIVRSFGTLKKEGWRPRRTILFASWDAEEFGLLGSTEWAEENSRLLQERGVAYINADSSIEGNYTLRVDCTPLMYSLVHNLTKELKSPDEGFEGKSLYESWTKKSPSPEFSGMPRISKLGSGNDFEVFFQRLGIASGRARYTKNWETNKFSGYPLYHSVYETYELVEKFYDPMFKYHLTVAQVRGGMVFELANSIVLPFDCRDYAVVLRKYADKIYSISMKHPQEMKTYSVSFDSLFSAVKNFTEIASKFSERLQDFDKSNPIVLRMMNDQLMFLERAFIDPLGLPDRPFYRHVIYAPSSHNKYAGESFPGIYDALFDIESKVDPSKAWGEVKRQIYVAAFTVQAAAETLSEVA

PSMA [2] = biological target: T1, PSMA; assay: PSMA competitive binding, LNCaP cells with [68Ga]PSMA-11; set-up: LNCaP with 0.2 nM; endogenous in cells; host or cells: LNCaP cells (suspension); conditions: n = 3; read-out: IC50 (LNCaP human PCa cells and [68Ga]PSMA-11)
Experimental: (§1) In vitro binding assays were carried out to determine the PSMA binding affinity of various compounds. By incubating PSMA positive cells either with: 1). LNCaP with 0.2 nM [^68Ga]PSMA-11 or [^125I]MIP-1095, as the ligand, in the presence of 10 different concentrations of competing ligands; non-specific binding was defined with 20 μM 2-PMPA (2-(phosphonomethyl)pentanedioic acid); or 2). PC-3 PIP cells with [^125I]MIP-1095 (0.18 nM diluted in PBS) in presence of different concentration of test compounds ([…] diluted in PBS containing 0.1% bovine serum albumin). Nonspecific binding (NSB) was defined with 2 μM the known PSMA inhibitor, PSMA-617. After incubation at 37° C. for 1 h, the bound and free fractions were separated by vacuum filtration through GF/B filters using a Brandel M-24R cell harvester. The filters were washed twice with cold Tris-HCl buffer (50 mM, pH=7.4), and the radioactivity on the filters was counted in a gamma counter (Wizard^2, Perkin-Elmer) with 50% efficiency. The nonspecific bound was less than 10% of the total bound. Data were analyzed using GraphPad Prism 6.0 with a nonlinear regression algorithm to obtain the half maximal inhibitory concentration (IC50).
(§2) The binding affinities to PSMA of the test compounds were measured by a competitive binding assay using either LNCap or PC-3 PIP cells suspension and the known radiotracers known to have high affinity and specificity to PSMA, [^68Ga]PSMA-11 or [^125I]MIP-1095. The IC50 values of four iodinated compounds, three DOTA, DOTAG and DOTA(GA)2 related compounds and two known PSMA inhibitors are shown in Table 1. Complexes of compound 4 and natural Ga and natural Lu were also tested. […] After labeling with radioisotope they are expected to bind to the tumor tissues over expressing PSMA binding sites.
Target sequence in this assay (Q04609 whole entry): as the sequence (Q04609 whole entry, species assumed) above

PSMA [3] = biological target: T1, PSMA; assay: PSMA competitive binding, PC-3 PIP cells with [125I]MIP-1095; set-up: expressed in transfected cells; host or cells: PC-3 PIP cells; conditions: n = 3 (a: n = 2); read-out: IC50 *(PC-3 PIP cells and [125I]MIP-1095)
Experimental: as §1, §2
Target sequence in this assay (Q04609 whole entry, species assumed): as above

IC50 (PSMA [2]) [nM] | IC50 (PSMA [3]) [nM] | Structure (SMILES) | Ki (PSMA [1]) [nM]
15.4 ± 0.8 | 13.6 ± 1.02 | O=C(O)CC[C@H](NC(=O)N[C@@H](CCCCNC(=O)[C@H](Cc1ccccc1)NC(=O)COc1ccc(C[C@H](NC(=O)CNC(=O)CCC(C(=O)O)N2CCN(CC(=O)O)CCN(C(CCC(=O)NCCOCCOCCNC(=O)CCCc3ccc(I)cc3)C(=O)O)CCN(CC(=O)O)CC2)C(=O)O)cc1)C(=O)O)C(=O)O (stereo partly drawn) [Compound 7, (4S,11S,15S)-4-benzyl-1-(4-((2S)-2-carboxy-2-(2-(4-carboxy-4-(7-(1-carboxy-18-(4-iodophenyl)-4,15-dioxo-8,11-dioxa-5,14-diazaoctadecyl)-4,10-bis(carboxymethyl)-1,4,7,10-tetraazacyclododecan-1-yl)butanamido)acetamido)ethyl)phenoxy)-2,5,13-trioxo-3,6,12,14-tetraazaheptadecane-11,15,17-tricarboxylic acid] | 
11.1 ± 0.8 | 10.9 ± 0.37 | O=C(O)CC[C@H](NC(=O)N[C@@H](CCCCNC(=O)[C@H](Cc1ccc2ccccc2c1)NC(=O)[C@H]1CC[C@H](CNC(=O)CN2CCN(CC(=O)O)CCN(CC(=O)O)CCN(CC(=O)O)CC2)CC1)C(=O)O)C(=O)O [PSMA-617, 2-[3-(1-Carboxy-5-(3-naphthalen-2-yl-2-[(4-([2-(4,7,10-tris-carboxymethyl-1,4,7,10-tetraaza-cyclododec-1-yl)-acetylamino]-methyl)-cyclohexanecarbonyl)-amino]-Propionylamino)-pentyl)-ureido]-pentanedioic acid, reference compound] | 

Second part, the compound before the results:

Structure (SMILES) | IC50 (PSMA [2]) [nM] | IC50 (PSMA [3]) [nM] | Ki (PSMA [1]) [nM]
O=C(O)CC[C@H](NC(=O)N[C@@H](CCCCNC(=O)Nc1ccc(I)cc1)C(=O)O)C(=O)O [MIP-1095] |  |  | 4.6
O=C(O)CC[C@H](NC(=O)N[C@@H](CCCCNC(=O)[C@H](Cc1ccccc1)NC(=O)COc1ccc(C[C@H](NC(=O)CNC(=O)CCC(C(=O)O)N2CCN(CC(=O)O)CCN(CC(=O)O)CCN(CC(=O)O)CC2)C(=O)NCC(=O)NC(P(=O)(O)O)P(=O)(O)O)cc1)C(=O)O)C(=O)O (stereo partly drawn) [Compound 51, (((1S)-1-Carboxy-5-((2S)-2-(2-(4-((2S)-2-(2-(4-carboxy-4-(4,7,10-tris(carboxymethyl)-1,4,7,10-tetraazacyclododecan-1-yl)butanamido)acetamido)-3-((2-((diphosphonomethyl)amino)-2-oxoethyl)amino)-3-oxopropyl)phenoxy)acetamido)-3-phenylpropanamido)pentyl)carbamoyl)-L-glutamic acid] | 10.7 ± 1.6 |  | 
O=C(O)CCC(C(=O)O)N1CCN(CC(=O)O)CCN(C(CCC(=O)NCC(=O)N[C@@H](Cc2ccc(OCC(=O)N[C@@H](Cc3ccccc3)C(=O)NCCCC[C@H](NC(=O)N[C@@H](CCC(=O)O)C(=O)O)C(=O)O)cc2)C(=O)O)C(=O)O)CCN(CC(=O)O)CC1 (stereo partly drawn) [Compound 4, (4S,11S,15S)-4-benzyl-1-(4-((2S)-2-(2-(4-(4,10-bis(carboxymethyl)-7-(1,3-dicarboxypropyl)-1,4,7,10-tetraazacyclododecan-1-yl)-4-carboxybutanamido)acetamido)-2-carboxyethyl)phenoxy)-2,5,13-trioxo-3,6,12,14-tetraazaheptadecane-11,15,17-tricarboxylic acid] | 28.7 ± 1.7 | 33.9 ± 2.38 | 
